Measurements taken from patent US20170015555A1, “LONG-TERM PRESERVATION AND NOVEL APPLICATION OF CHLOROUS ACID AQUEOUS SOLUTION FORMULATION” (priority 2013, published 2017).

Assays:
[1] = tested on: Enterohemorrhagic Escherichia coli O157; test: Permeability of pathogenic microbes when treatment sheets were laid on vomit; format: cell-based; conditions: 1000 ppm available chlorine
Excerpt: 1) Chlorous acid aqueous solution formulation (see Example 1: Table 11) Treatment sheet (material: 100% cotton): (about 27×40 cm) *Impregnated at a ratio of weight of treatment sheet (g): amount of liquid (ml)=1:3 2) Imitation vomit (hereinafter, referred to as vomit) Miso solution: adjusted to pH 2 with hydrochloric acid 3) Test Microbes that were used E. coli: Escherichia coli IF03927 Staphylococcus aureus: Staphylococcus aureus IF0 12732 Thermoduric Microbes (Bacillus cereus): Bacillus cereus NBRC15305 Microbes of the genus Salmonella: Salmonella Enteritidis IF03313 Enterohemorrhagic Escherichia coli 0157: Escherichia coli 0157 Enterohemorrhagic Escherichia coli 0111: Escherichia coli 0111 Enterohemorrhagic Escherichia coli 026: Escherichia coli O26
Permeability of pathogenic microbes into a treatment sheet when treating vomit was examined to compare effects of preventing secondary contamination. (1) Imitation vomit is spread in an area about the size of an A4 sheet. (2) 30 agent solution-containing treatment sheets were laid thereon and left standing for 10 minutes. (3) Treatment sheets were removed one at a time from the top. After diluting with saline, the sample was spread in a petri dish and cultured.

[2] = tested on: Microbes of the genus Salmonella: Salmonella Enteritidis IF03313; format: cell-based; conditions: stored at 25° C. Day 0; 1000 ppm available chlorine
Excerpt: 1) Chlorous acid aqueous solution formulation (see Example 1: Table 11) Treatment sheet (material: 100% cotton): (about 27×40 cm) *Impregnated at a ratio of weight of treatment sheet (g): amount of liquid (ml)=1:3 2) Imitation vomit Miso solution: adjusted to pH of 2 with hydrochloric acid 3) Test Microbes that were Used E. coli: Escherichia coli IF03927 Staphylococcus aureus: Staphylococcus aureus IF0 12732 Thermoduric Microbes (Bacillus cereus): Bacillus cereus NBRC15305 Microbes of the genus Salmonella: Salmonella Enteritidis IF03313 Enterohemorrhagic Escherichia coli O157: Escherichia coli O157 Enterohemorrhagic Escherichia coli O111: Escherichia coli O111 Enterohemorrhagic Escherichia coli O26: Escherichia coli O26
(1) Imitation vomit was spread in an area about the size of an A4 sheet. (2) 5 dry sheets were laid thereon. (3) An agent solution was poured on the dry sheets to wipe off the imitation vomit. (4) A cotton swab was soaked with sterile saline. A portion where imitation vomit was spread was scrubbed with the cotton swab to collect microbes remaining on the floor. After suspending in saline, the solution was spread on a petri dish and cultured. The number of each of the microbes was measured. (5) Test operations 3 and 4 were repeated a total of 7 times (repeated until the imitation vomit could be removed completely).

For OCl [Sodium Hypochlorite, sodium hypochlorite], the “Microbe count, 1 sheet laid on imitation vomit” value ([1]; Day 0 at 25° C.) was less than 10, the “Microbe count, 2 sheets laid on imitation vomit” value ([1]; Day 0 at 25° C.) was less than 10 and the “Microbe count, 3 sheets laid on imitation vomit” value ([1]; Day 0 at 25° C.) was less than 10. The “Microbe count, 4 sheets laid on imitation vomit” value ([1]; Day 0 at 25° C.) was less than 10, the “Microbe count, 5 sheets laid on imitation vomit” value ([1]; Day 0 at 25° C.) was less than 10 and the “Microbe count, 6 sheets laid on imitation vomit” value ([1]; Day 0 at 25° C.) was less than 10. The “Microbe count, 8 sheets laid on imitation vomit” value ([1]; Day 0 at 25° C.) was less than 10, the “Microbe count, 10 sheets laid on imitation vomit” value ([1]; Day 0 at 25° C.) was less than 10 and the “Microbe count, 20 sheets laid on imitation vomit” value ([1]; Day 0 at 25° C.) was less than 10. The “Microbe count, 30 sheets laid on imitation vomit” value ([1]; Day 0 at 25° C.) was less than 10, the “Microbe count, 1 sheet laid on imitation vomit” value ([1]; Day 7 at 25° C.) was >10^6 and the “Microbe count, 2 sheets laid on imitation vomit” value ([1]; Day 7 at 25° C.) was >10^6. The “Microbe count, 3 sheets laid on imitation vomit” value ([1]; Day 7 at 25° C.) was >10^6, the “Microbe count, 4 sheets laid on imitation vomit” value ([1]; Day 7 at 25° C.) was >10^6 and the “Microbe count, 5 sheets laid on imitation vomit” value ([1]; Day 7 at 25° C.) was >10^6. For the same molecule, the “Microbe count, 6 sheets laid on imitation vomit” value ([1]; Day 7 at 25° C.) was >10^6, the “Microbe count, 8 sheets laid on imitation vomit” value ([1]; Day 7 at 25° C.) was 1.1 × 10^4 and the “Microbe count, 10 sheets laid on imitation vomit” value ([1]; Day 7 at 25° C.) was 7.1 × 10^2. The “Microbe count, 20 sheets laid on imitation vomit” value ([1]; Day 7 at 25° C.) was less than 10, the “Microbe count, 30 sheets laid on imitation vomit” value ([1]; Day 7 at 25° C.) was less than 10 and the “Number of Times Wiped 1 Time (remaining microbes)” value [2] was less than 10. For the same molecule, the “Number of Times Wiped 2 Times (remaining microbes)” value [2] was less than 10 and the “Number of Times Wiped 3 Times (remaining microbes)” value [2] was less than 10.
